As a reminder, the Emax is the size of the effect at its maximum, as opposed to the concentration needed. A word on the pEC50: it is the EC50 on a negative log10 scale, so that one unit is a factor of ten.

One data set has as its target T1, Human M4 (Homo sapiens, UniProt P08173).
T1 construct: expressed in transfected cells
T1 sequence (P08173 1-479): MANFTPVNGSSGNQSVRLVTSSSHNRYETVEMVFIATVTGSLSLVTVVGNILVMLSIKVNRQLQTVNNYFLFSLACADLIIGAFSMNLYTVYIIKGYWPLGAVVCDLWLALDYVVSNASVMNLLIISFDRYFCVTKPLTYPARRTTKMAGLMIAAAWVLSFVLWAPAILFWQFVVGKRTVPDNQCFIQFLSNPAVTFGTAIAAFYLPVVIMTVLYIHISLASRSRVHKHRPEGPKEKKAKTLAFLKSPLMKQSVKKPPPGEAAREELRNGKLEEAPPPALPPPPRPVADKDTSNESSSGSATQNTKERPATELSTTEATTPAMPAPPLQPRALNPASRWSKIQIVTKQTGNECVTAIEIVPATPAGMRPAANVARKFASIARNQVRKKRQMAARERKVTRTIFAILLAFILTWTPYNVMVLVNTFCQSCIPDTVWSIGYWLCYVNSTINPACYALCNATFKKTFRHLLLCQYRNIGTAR
Briefly: mAChR M4 cell-based functional assay (calcium flux, PAM mode). On the set-up: Emax: dose or concentration left out as unconfirmed. The following applies: for Emax at 30 µM: CHO-K1, % ACh maximum at 30 μM; for Emax at 30 µM / pEC50: hM4-Gqi5 CHO-K1 cells; for pEC50: concentration-dependent increase in the EC20 acetylcholine response. An outline of the steps: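 CHO-K1 cells stably co-expressing human M4 and chimeric Gqi5, Fluo-4 loaded; compound added first (11-point, 1:3 CRC), then EC20 acetylcholine at 144 s and EC80 at 230 s. PAM activity read on FDSS as concentration-dependent increase of EC20 ACh calcium response; EC50 and Emax from four-parameter logistic fit.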
(In general: Calcium assays in cells follow changes in intracellular calcium, usually with a dye or a luminescent sensor.)

For data set [1] the following is noted: human, in vivo; cited from earlier work.
The conditions of data set [2]: cited from earlier work.
For data set [3] the following is noted: Alzheimer's disease patients; Bodick et al. 1997; cited from earlier work.

pEC50: −log10 of the molar value.

In the case of `[2H]C1([2H])Oc2ccc(O[C@@H]3CCN(c4nn5c(=O)cc(COC)nc5cc4C)C[C@H]3F)cc2OC1([2H])[2H]` [Compound 125, 7-((3R,4R)-4-((2,3-dihydrobenzo[b][1,4]dioxin-6-yl-2,2,3,3-d4)oxy)-3-fluoropiperidin-1-yl)-2-(methoxymethyl)-8-methyl-4H-pyrimido[1,2-b]pyridazin-4-one], at Human M4, the maximal effect (Emax) at 30 µM worked out at 108% and the pEC50 was 7.06.
Take `COc1c(C)c(N2CCC(Oc3ccc4c(c3)OCCO4)CC2)nn2c(=O)ccnc12` [Compound 126, 7-(4-((2,3-Dihydrobenzo[b][1,4]dioxin-6-yl)oxy)piperidin-1-yl)-9-methoxy-8-methyl-4H-pyrimido[1,2-b]pyridazin-4-one]: at Human M4, the Emax at 30 µM was determined as 109% and the pEC50 was 6.38.
Consider `Cc1c(N2CCC(Oc3ccc4c(c3)OCCO4)CC2)nn2c(=O)ccnc2c1N1CCC1` [Compound 127, 9-(Azetidin-1-yl)-7-(4-((2,3-dihydrobenzo[b][1,4]dioxin-6-yl)oxy)piperidin-1-yl)-8-methyl-4H-pyrimido[1,2-b]pyridazin-4-one], for which, on Human M4 (CHO-K1, read-out: Human M4 Emax (%)*), the Emax came to 58%. For the same compound, on Human M4, the pEC50 was 5.80.
As to `[2H]C1([2H])Oc2ccc(O[C@@H]3CCN(c4nn5c(=O)ccnc5c(C)c4C)C[C@H]3F)cc2OC1([2H])[2H]` [Compound 128, 7-((3R,4R)-4-((2,3-dihydrobenzo[b][1,4]dioxin-6-yl-2,2,3,3-d4)oxy)-3-fluoropiperidin-1-yl)-8,9-dimethyl-4H-pyrimido[1,2-b]pyridazin-4-one], on Human M4, the Emax at 30 µM is 125% and the pEC50 was 7.28.
Consider `[2H]C1([2H])Oc2ccc(O[C@H]3CCN(c4nn5c(=O)ccnc5cc4C)[C@H](C)C3)cc2OC1([2H])[2H]` [Compound 129, 7-((2R,4S)-4-((2,3-Dihydrobenzo[b][1,4]dioxin-6-yl-2,2,3,3-d4)oxy)-2-methylpiperidin-1-yl)-8-methyl-4H-pyrimido[1,2-b]pyridazin-4-one], for which, at Human M4, the Emax at 30 µM came out at 120% and the pEC50 was 7.09.
Turning to `[2H]C1([2H])Oc2cc(O[C@H]3CCN(c4nn5c(=O)ccnc5cc4C)[C@H](C)C3)cc(F)c2OC1([2H])[2H]` [Compound 130, 7-((2R,4S)-4-((8-fluoro-2,3-dihydrobenzo[b][1,4]dioxin-6-yl-2,2,3,3-d4)oxy)-2-methylpiperidin-1-yl)-8-methyl-4H-pyrimido[1,2-b]pyridazin-4-one], at Human M4, the Emax at 30 µM is 116% and the negative logarithm of the EC50 (pEC50) is 6.80.
Consider `Cc1cc2nccc(=O)n2nc1N1CC[C@H](Oc2cc(F)c3c(c2)OCCO3)C[C@H]1C` [Compound 131, 7-((2R,4S)-4-((8-fluoro-2,3-dihydrobenzo[b][1,4]dioxin-6-yl)oxy)-2-methylpiperidin-1-yl)-8-methyl-4H-pyrimido[1,2-b]pyridazin-4-one], for which, on Human M4, the Emax at 30 µM was 119% and the negative-log EC50 (pEC50) was 6.69.
In the same order, the values of `[2H]C1([2H])Oc2ccc(O[C@H]3CCN(c4nn5c(=O)ccnc5c(C)c4C)[C@H](C)C3)cc2OC1([2H])[2H]` [Compound 132, 7-((2R,4S)-4-((2,3-dihydrobenzo[b][1,4]dioxin-6-yl-2,2,3,3-d4)oxy)-2-methylpiperidin-1-yl)-8,9-dimethyl-4H-pyrimido[1,2-b]pyridazin-4-one] are 107% and 7.47.
For `[2H]C1([2H])Oc2ccc(O[C@H]3CCN(c4nn5c(=O)cc(COC)nc5c(C)c4C)[C@H](C)C3)cc2OC1([2H])[2H]` [Compound 133, 7-((2R,4S)-4-((2,3-dihydrobenzo[b][1,4]dioxin-6-yl-2,2,3,3-d4)oxy)-2-methylpiperidin-1-yl)-2-(methoxymethyl)-8,9-dimethyl-4H-pyrimido[1,2-b]pyridazin-4-one], at Human M4, the Emax at 30 µM turned out to be 105% and the negative logarithm of the EC50 (pEC50) is 7.02.
On the same counts, the results for `Cc1c(N2CC[C@H](Oc3ccc4c(c3)OCCO4)C[C@H]2C)nn2c(=O)ccnc2c1C` [Compound 134, 7-((2R,4S)-4-((2,3-dihydrobenzo[b][1,4]dioxin-6-yl)oxy)-2-methylpiperidin-1-yl)-8,9-dimethyl-4H-pyrimido[1,2-b]pyridazin-4-one] are 105% and 7.60.
In the same order, the values of `Cc1cc2nccc(=O)n2nc1N1CCC(Oc2cc(F)c3c(c2)OCCO3)CC1` [Compound 135, 7-(4-((8-fluoro-2,3-dihydrobenzo[b][1,4]dioxin-6-yl)oxy)piperidin-1-yl)-8-methyl-4H-pyrimido[1,2-b]pyridazin-4-one] are 98% and 7.12.
On the same counts, the results for `[2H]C1([2H])Oc2cc(OC3CCN(c4nn5c(=O)ccnc5cc4C)CC3)cc(F)c2OC1([2H])[2H]` [Compound 136, 7-(4-((8-fluoro-2,3-dihydrobenzo[b][1,4]dioxin-6-yl-2,2,3,3-d4)oxy)piperidin-1-yl)-8-methyl-4H-pyrimido[1,2-b]pyridazin-4-one] are 97% and 7.14.
As for `[2H]C1([2H])CC(Oc2ccc3c(c2)OC([2H])([2H])C([2H])([2H])O3)CC([2H])([2H])N1c1nn2c(=O)ccnc2cc1C` [Compound 137, 7-(4-((2,3-dihydrobenzo[b][1,4]dioxin-6-yl-2,2,3,3-d4)oxy)piperidin-1-yl-2,2,6,6-d4)-8-methyl-4H-pyrimido[1,2-b]pyridazin-4-one], at Human M4, the maximal response (Emax) at 30 µM was 105% and the negative logarithm of the EC50 (pEC50) is 7.35.
For the compound `Nc1c2c(nc3ccccc13)CCCC2` [tacrine], in data set [1], the “elevated liver transaminases observed in patients” value is given as “about 30 % of patients”.
As for `CCCCCCOc1nsnc1C1=CCCN(C)C1` [xanomeline], in data set [2] (Bymaster et al., Shannon et al.), the “activity in animal models with similar profiles to known antipsychotic drugs” value was “active”. Besides, in data set [2] (animal models), the catalepsy entry was “without causing catalepsy”. In data set [3], the “psychotic behavioral symptoms such as delusions, suspiciousness, vocal outbursts, and hallucinations” value was “reduce psychotic behavioral symptoms”.

The values above are taken from patent US11884676B2, “Substituted pyrimido[1,2-b]pyridazines as positive allosteric modulators of the muscarinic acetylcholine receptor M4” (Vanderbilt University, priority 2020, dated 2024).
